Test results published in patent US6605604B1, “Carboxylic and hydroxamic acid compounds inhibiting metalloproteases, method for preparing same and pharmaceutical compositions containing them” (Les Laboratoires Servier, priority 1998, dated 2003).

Assays:
ovarian cancers = details: Becket et al., DDT 1996, 1, 16; cited from earlier work
B16F10 melanoma = details: BDF1 mice, B16F10 cells i.v. on day 1; compound i.v. at 100 mg/kg from day 0 to day 3; metastases counted on day 11
Experimental: Inhibition of the Formation of Metastases in the Mouse
The anti-tumour activity of the compounds of the invention was studied in the model of B16F10 melanoma grafted by the i.v. route. […] The parameter measured is thus the number of pulmonary metastases.
B16F1O tumour cells are injected by the i.v. route into BDF1 mice on day 1 (1 10^5 cells per mouse). The compounds are administered by the i.v. route at 100 mg/kg from day 0 to day 3 (7 animals per experimental group). On day 11, the animals are sacrificed and the pulmonary metastases are counted. The results are expressed as % inhibition compared with the control animals.

[1] = tested on: rabbit cartilage collagen matrix degradation induced by IL-1β; details: read-out: IC50, collagen degradation (OH-proline release), IL-1β 10 ng/ml and plasmin 0.1 U/ml, 2 days
Experimental: The compounds of the invention were studied using a rabbit cartilage collagen matrix degradation model with degradation being induced by IL-1β. The tissue is placed in contact with IL -1β (10 ng/ml) and plasmin (0.1 U/ml) for 2 days. The fraction of OH-proline salted out by the tissue is evaluated by colorimetric measurement (GRANT R. A. Estimation of OH-proline by the autoanalyzer, J. Clin. Path. 1964, 17 685). The compounds of the invention were studied after the addition of various concentrations to the culture medium during the two days of the test.

SMILES | anti-tumour activity in clinical use (ovarian cancers) | inhibition of the formation of pulmonary metastases, % inhibition compared with the control animals (B16F10 melanoma) [%] | IC50 [1] [nM]
CNC(=O)[C@H](Cc1ccccc1)NC(=O)[C@H](CC(C)C)[C@H](CSc1cccs1)C(=O)NO [BB94] | active in ovarian cancers |  | 
O=C(O)[C@H]1[C@H](Cn2nnc3ccccc3c2=O)CC[C@@H]1Sc1ccc(-c2ccc(Cl)cc2)cc1 (mixture of isomers) [Example 49, (1R,2S,5R)- and (1S,2R,5S)-2-[(4′-chloro-4-biphenyl)sulphanyl]-5-[(4-oxo-3,4-dihydro-1,2,3-benzotriazin-3-yl)methyl]-1-cyclopentanecarboxylic acid] |  | 73 | 
O=C(NO)C(CCn1nnc2ccccc2c1=O)CSCCc1ccc(-c2ccc(Cl)cc2)cc1 (stereo not shown) [Example 93, 2-{[2-(4′-Chloro-4-biphenyl)ethyl]sulphanylmethyl}-N-hydroxy-4-(4-oxo-3,4-dihydro-1,2,3-benzotriazin-3-yl)butyramide] |  | 75 | 1900
